What was measured:
[1] = in vitro drug release study, aqueous medium containing 1% Tween 80; type: physicochemical; conditions: 24-hour period, FIG. 3
Description: In the drug release study, an aqueous medium containing 1% Tween 80 is used to re-suspend the genistein-containing PLGA particles or the raw genistein. The cumulative release percentage of the encapsulated genistein from the PLGA coated particles and that of the raw genistein without PLGA for a 24-hour period is shown in FIG. 3. […] That may be due to the presence of free and weakly bound drug on the surface of particulate carriers. […] In FIG. 3, the encapsulated genistein from the PLGA coated particles has a cumulative release percentage of below 20% within the first 24 hours while the raw genistein has over 40% of release over the 24-hour period. From this in vitro study, it could be said that the extended release profile of genistein-containing PLGA particles can increase the chance of genistein to be utilized in human body, which further leads to an improved bioavailability. The slower the release rate is, more available active ingredients are released to a specific site of action.

[2] = particle morphology and size under scanning electron microscope (SEM); type: physicochemical
Description: It appears from the SEM images that the particle of genistein with PLGA has a nearly spherical shape and an average size of less than 1 μm. In comparison, the raw genistein is rectangular rod-shaped and the width (i.e., the shortest side of the rectangular rod-shaped raw genistein) is about 10 μm. PLGA matrix can protect genistein from degradation in the gastrointestinal tract and also from first-pass metabolism in the liver. Meanwhile, the nearly spherical shape of the genistein particle with the size less than 1 μm has a larger surface area to favor the interaction between the particle and the target cell in order to increase the chance of localizing on the target cell and delivering the genistein encapsulated in the particle in a controlled release manner.

O=c1c(-c2ccc(O)cc2)coc2cc(O)cc(O)c12 [raw genistein, genistein]
cumulative release percentage of genistein [1]: over 40% | width (shortest side of rectangular rod-shaped particle) [2]: about 10 μm

— patent publication US20130189320A1, “METHOD OF PREPARING A CONTROLLED RELEASE PARTICLE OF SOY ISOFLAVONE WITH BIODEGRADABLE POLYMER USING A SUPERCRITICAL FLUID EXTRACTION OF EMULSION (SFEE) PROCESS” (Nano and Advanced Materials Institute Limited, priority 2012, published 2013)
